Experimental data reported in patent US12544373B2, “Treatment of cancer, inflammatory diseases and autoimmune diseases” (Usher III Initiative, Inc., priority 2020, dated 2026).
Read-outs that look alike come from different tables or passages of the source.

Legend:
Type in all cases: cell-based, human
PRXF DU-145 = experiment: CellTiter-Blue 2D monolayer assay (Example 1), prostate; details: for Test/Control (%): 72 h
Description: (§1) Compound 85 was assessed in 10 human tumor cell lines (see Table 3) for anti-cancer activity in vitro using a CellTiter-Blue® based 2D monolayer assay.
(§2) CellTiter-Blue® Cell Viability Assay: Tumor cells were grown at 37° C. in a humidified atmosphere with 5% CO2 in RPMI medium, supplemented with 10% (v/v) fetal calf serum and 50 μg/ml gentamicin (140 μl/well). Cultures were incubated at 37° C. and 5% CO2 in a humidified atmosphere. After 24 hours, 10 μl of Compound 85 was added, and left on the cells for another 72 hours (incubation period). Compound 85 was tested at 5 concentrations (0.003 μM, 0.03 μM, 0.3 μM, 3 μM, and 30 μM) and serially diluted in DMSO, mixed with cell culture medium, and added to the assay plates by using a Tecan Freedom EVO 200 robotic platform. The DMSO concentration was kept constant at 0.3% yip across the assay plate. Every 96 well plate included six DMSO-treated control wells and Compound 85-treated wells in duplicate at 5 concentrations. Viability of cells was quantified using the CellTiter-Blue® cell viability assay (Promega G8081). After incubation of cells, the CellTiter-Blue® reagent was brought to ambient temperature. Next, 20 μl of CellTiter-Blue® reagent were added to each well. After incubation tier up to 4 hours, fluorescence (FU) was measured using the EnSpire® multimode plate reader (Perkin Elmer) ([…]).
(§3) Data Evaluation: Sigmoidal concentration-response curves were fitted to the data points (test-versus-control; T/C values) obtained for each tumor model using 4 parameter non-linear curve fit (Charles River DRS Datawarehouse Software). Drug effects are expressed in terms of the percentage of the fluorescence signal, obtained by comparison of the mean signal in the treated wells with the mean signal of the untreated controls (T/C-value [%]) (Table 4). IC50 and IC70 values were reported as relative and absolute IC50 and IC70 values (Table 5). The absolute IC50 and IC70 values reflect the concentration of Compound 85 that achieves T/C=50% and T/C=30%, respectively. The relative IC50 value is the concentration of Compound 85 that gives a response half way between the top and bottom plateau of the sigmoidal concentration-response curve (inflection point of the curve).

OVXF 899 = experiment: CellTiter-Blue 2D monolayer assay (Example 1), ovarian; details: for Test/Control (%): 72 h
Description: as §1, §2, §3

OVXF A2780 = experiment: as above; details: for Test/Control (%): 72 h
Description: as §1, §2, §3

CNXF 498 = experiment: CellTiter-Blue 2D monolayer assay (Example 1), glioblastoma; details: for Test/Control (%): 72 h
Description: as §1, §2, §3

MEXF 1341 = experiment: CellTiter-Blue Cell Viability Assay (Example 2), melanoma; details: for T/C %: 72 h
Text: (§4) The CellTiter-Blue® Cell Viability Assay was used to assess the viability of cells from various cancer cell lines, in the presence or absence of Compound 85 (at different concentrations). This assay provides a homogeneous, fluorometric method for estimating the number of viable cells present in multi-well plates. Viable cells retain the ability to reduce resazurin to resorufin, which is highly fluorescent. […] The fluorescence produced is proportional to the number of viable cells. There is a linear relationship between cell number and fluorescence.
(§5) Cancer cells (see Table 6) were harvested from exponential phase cultures, counted and plated in 96 well flat-bottom microtiter plates, at a cell density 6,000-20,000 cells/well, depending on the cell line's growth rate. The culture medium was supplemented with 10% (v/v) foetal calf serum and 50 μg/mL gentamicin (140 μL/well). Cultures were incubated at 37° C. and 5% CO2 in a humidified atmosphere.
(§6) Compound 85 was serially diluted in DMSO, and five Compound 85 concentrations in half-log increments were used: 0.03 μM, 0.09 μM, 0.30 μM, 1.0 μM, and 3.0 μM. After 24 h, 10 μL of Compound 85 (dissolved in DMSO) or control (DMSO) medium were added, in duplicates, and left on the cells for another 72 h. Compound 85 solutions were added to the assay plates using a Tecan Freedom EVO 200 robotic platform. The DMSO concentration was kept constant at 0.3% v/v across the assay plate.
(§7) After incubation of up to 72 hours, fluorescence (FU) was measured using the EnSpire® multimode plate reader (Perkin Elmer) (excitation λ=570 nm, emission λ=600 nm).
(§8) Cancer cell lines used: Compound 85's anti-cancer effect was tested in 20 human cancer-cell lines representing nine cancer types (Table 6).
(§9) The percentage of viable cells in the presence of Compound 85 (Test condition, T), at different concentrations, are presented in Table 7 and expressed as a percentage of the number of viable cells in the presence of DMSO without Compound 85 (Control condition, C).
(§10) The relative IC50 is determined as the Compound 85 concentration giving a response halfway between the maximum cell viability signal (i.e., a 100% cell viability, no Compound 85 response) and the minimal viability signal (i.e. maximum cell viability inhibition achieved by Compound 85), in a sigmoidal concentration-effect curve.
(§11) The absolute IC50 is determined as the concentration that is associated with a T/C ratio of 50%.

MEXF 1737 = experiment: as above; details: for T/C %: 72 h
Text: as §4, §5, §6, §7, §8, §9, §10, §11

SMILES: CC(C)(O)Cn1nc(-c2ccccc2)c2c(Cl)c(-c3ccccc3)nnc21 [Compound 85]
- Rel. IC70 (PRXF DU-145): 1376 nM
- Test/Control (%) (PRXF DU-145; 0.003 μM): 100%
- Test/Control (%) (PRXF DU-145; 0.03 μM): 110%
- Test/Control (%) (PRXF DU-145; 0.3 μM): 102%
- Test/Control (%) (PRXF DU-145; 3 μM): 11%
- Test/Control (%) (PRXF DU-145; 30 μM): 6%
- Abs. IC70 (PRXF DU-145; T/C=30%): 1528 nM
- IC50 (PRXF DU-145; T/C=50%, read-out: Abs. IC50): 1090 nM
- Bot. (%) (PRXF DU-145; bottom plateau of curve): 6%
- IC50 (PRXF DU-145; read-out: Rel. IC50): 1000 nM
- Top (%) (PRXF DU-145; top plateau of curve): 105%
- Rel. IC70 (OVXF 899): 739 nM
- Test/Control (%) (OVXF 899; 0.003 μM): 108%
- Test/Control (%) (OVXF 899; 0.03 μM): 106%
- Test/Control (%) (OVXF 899; 0.3 μM): 86%
- Test/Control (%) (OVXF 899; 3 μM): 2%
- Test/Control (%) (OVXF 899; 30 μM): 1%
- Abs. IC70 (OVXF 899; T/C=30%): 775 nM
- IC50 (OVXF 899; T/C=50%, read-out: Abs. IC50): 553 nM
- Bot. (%) (OVXF 899; bottom plateau of curve): 1%
- IC50 (OVXF 899; read-out: Rel. IC50): 522 nM
- Top (%) (OVXF 899; top plateau of curve): 107%
- Rel. IC70 (OVXF A2780): 1872 nM
- Test/Control (%) (OVXF A2780; 0.003 μM): 101%
- Test/Control (%) (OVXF A2780; 0.03 μM): 94%
- Test/Control (%) (OVXF A2780; 0.3 μM): 101%
- Test/Control (%) (OVXF A2780; 3 μM): 1%
- Test/Control (%) (OVXF A2780; 30 μM): 0%
- Abs. IC70 (OVXF A2780; T/C=30%): 1868 nM
- IC50 (OVXF A2780; T/C=50%, read-out: Abs. IC50): 1690 nM
- Bot. (%) (OVXF A2780; bottom plateau of curve): 0%
- IC50 (OVXF A2780; read-out: Rel. IC50): 1700 nM
- Top (%) (OVXF A2780; top plateau of curve): 99%
- Rel. IC70 (CNXF 498): 1868 nM
- Test/Control (%) (CNXF 498; 0.003 μM): 106%
- Test/Control (%) (CNXF 498; 0.03 μM): 107%
- Test/Control (%) (CNXF 498; 0.3 μM): 113%
- Test/Control (%) (CNXF 498; 3 μM): 2%
- Test/Control (%) (CNXF 498; 30 μM): 1%
- Abs. IC70 (CNXF 498; T/C=30%): 1901 nM
- IC50 (CNXF 498; T/C=50%, read-out: Abs. IC50): 1740 nM
- Bot. (%) (CNXF 498; bottom plateau of curve): 1%
- IC50 (CNXF 498; read-out: Rel. IC50): 1710 nM
- Top (%) (CNXF 498; top plateau of curve): 109%
- Absolute IC70 (MEXF 1341): 445 nM
- Relative IC70 (MEXF 1341): 451 nM
- T/C % (MEXF 1341; 0.03 μM): 97%
- T/C % (MEXF 1341; 0.095 μM): 91%
- T/C % (MEXF 1341; 0.3 μM): 82%
- T/C % (MEXF 1341; 0.95 μM): 0%
- T/C % (MEXF 1341; 3.0 μM): 0%
- IC50 (MEXF 1341; read-out: Absolute IC50): 391 nM
- IC50 (MEXF 1341; read-out: Relative IC50): 399 nM
- Absolute IC70 (MEXF 1737): 925 nM
- Relative IC70 (MEXF 1737): 864 nM
- T/C % (MEXF 1737; 0.03 μM): 99%
- T/C % (MEXF 1737; 0.095 μM): 97%
- T/C % (MEXF 1737; 0.3 μM): 101%
- T/C % (MEXF 1737; 0.95 μM): 27%
- T/C % (MEXF 1737; 3.0 μM): 16%
- IC50 (MEXF 1737; read-out: Absolute IC50): 826 nM
- IC50 (MEXF 1737; read-out: Relative IC50): 799 nM
